Data from the NIST ThermoML archive (doi:10.1016/j.jct.2012.11.014).
± gives the expanded uncertainty stated by the source.

Assay: xn = mol fraction of the nth substance listed
Details: 101 kPa, Liquid; for speed of sound: Frequency=2 MHz, Linear variable-path acoustic interferometer; for viscosity: Oscillating disk viscometry; for mass density: Vibrating tube method

## CC(=O)[O-].C[NH+](C)C [trimethylammonium acetate] + C[S+](C)[O-]
308.15 K, x1 = 0.0159
  speed of sound: 1461 ± 3 m/s
  viscosity: 1.71 ± 0.11 mPa·s
  mass density: 1085.87 ± 1 kg/m3
308.15 K, x1 = 0.0656
  speed of sound: 1465 ± 3 m/s
  viscosity: 1.84 ± 0.11 mPa·s
  mass density: 1084.72 ± 1 kg/m3
308.15 K, x1 = 0.1182
  speed of sound: 1469 ± 3 m/s
  viscosity: 1.96 ± 0.12 mPa·s
  mass density: 1083.28 ± 1 kg/m3
308.15 K, x1 = 0.1693
  speed of sound: 1473 ± 3 m/s
  viscosity: 2.07 ± 0.13 mPa·s
  mass density: 1081.2 ± 1 kg/m3
308.15 K, x1 = 0.2333
  speed of sound: 1479 ± 3 m/s
  viscosity: 2.2 ± 0.14 mPa·s
  mass density: 1078.93 ± 1 kg/m3
308.15 K, x1 = 0.2857
  speed of sound: 1483 ± 3 m/s
  viscosity: 2.29 ± 0.14 mPa·s
  mass density: 1076.51 ± 1 kg/m3
308.15 K, x1 = 0.3408
  speed of sound: 1487 ± 3 m/s
  viscosity: 2.39 ± 0.15 mPa·s
  mass density: 1073.96 ± 1 kg/m3
308.15 K, x1 = 0.3877
  speed of sound: 1491 ± 3 m/s
  viscosity: 2.45 ± 0.15 mPa·s
  mass density: 1071.75 ± 1 kg/m3
308.15 K, x1 = 0.4358
  speed of sound: 1494 ± 3 m/s
  viscosity: 2.51 ± 0.15 mPa·s
  mass density: 1069.43 ± 1 kg/m3
308.15 K, x1 = 0.5129
  speed of sound: 1499 ± 3 m/s
  viscosity: 2.57 ± 0.16 mPa·s
  mass density: 1065.68 ± 1 kg/m3
308.15 K, x1 = 0.5506
  speed of sound: 1501 ± 3 m/s
  viscosity: 2.59 ± 0.16 mPa·s
  mass density: 1063.92 ± 1 kg/m3
308.15 K, x1 = 0.5959
  speed of sound: 1504 ± 3 m/s
  viscosity: 2.6 ± 0.16 mPa·s
  mass density: 1061.71 ± 1 kg/m3
308.15 K, x1 = 0.6852
  speed of sound: 1507 ± 3 m/s
  viscosity: 2.59 ± 0.16 mPa·s
  mass density: 1057.63 ± 1 kg/m3
308.15 K, x1 = 0.7487
  speed of sound: 1509 ± 3 m/s
  viscosity: 2.55 ± 0.16 mPa·s
  mass density: 1054.92 ± 1 kg/m3
308.15 K, x1 = 0.8156
  speed of sound: 1511 ± 3 m/s
  viscosity: 2.49 ± 0.16 mPa·s
  mass density: 1052.23 ± 1 kg/m3
308.15 K, x1 = 0.8651
  speed of sound: 1511 ± 3 m/s
  viscosity: 2.39 ± 0.15 mPa·s
  mass density: 1050.25 ± 1 kg/m3
308.15 K, x1 = 0.9231
  speed of sound: 1511 ± 3 m/s
  viscosity: 2.27 ± 0.15 mPa·s
  mass density: 1048.26 ± 1 kg/m3
308.15 K, x1 = 0.961
  speed of sound: 1510 ± 3 m/s
  viscosity: 2.19 ± 0.14 mPa·s
  mass density: 1046.98 ± 1 kg/m3
308.15 K, x1 = 1
  speed of sound: 1508 ± 3 m/s
  viscosity: 2.06 ± 0.14 mPa·s
  mass density: 1045.81 ± 1 kg/m3
313.15 K, x1 = 0.0159
  speed of sound: 1443 ± 3 m/s
  viscosity: 1.61 ± 0.1 mPa·s
  mass density: 1081.32 ± 1 kg/m3
313.15 K, x1 = 0.0656
  speed of sound: 1447 ± 3 m/s
  viscosity: 1.73 ± 0.11 mPa·s
  mass density: 1080.52 ± 1 kg/m3
313.15 K, x1 = 0.1182
  speed of sound: 1452 ± 3 m/s
  viscosity: 1.85 ± 0.11 mPa·s
  mass density: 1079.21 ± 1 kg/m3
313.15 K, x1 = 0.1693
  speed of sound: 1457 ± 3 m/s
  viscosity: 1.96 ± 0.12 mPa·s
  mass density: 1077.1 ± 1 kg/m3
313.15 K, x1 = 0.2333
  speed of sound: 1463 ± 3 m/s
  viscosity: 2.08 ± 0.13 mPa·s
  mass density: 1074.98 ± 1 kg/m3
313.15 K, x1 = 0.2857
  speed of sound: 1468 ± 3 m/s
  viscosity: 2.16 ± 0.13 mPa·s
  mass density: 1072.77 ± 1 kg/m3
313.15 K, x1 = 0.3408
  speed of sound: 1472 ± 3 m/s
  viscosity: 2.26 ± 0.14 mPa·s
  mass density: 1070.09 ± 1 kg/m3
313.15 K, x1 = 0.3877
  speed of sound: 1476 ± 3 m/s
  viscosity: 2.31 ± 0.14 mPa·s
  mass density: 1067.96 ± 1 kg/m3
313.15 K, x1 = 0.4358
  speed of sound: 1481 ± 3 m/s
  viscosity: 2.36 ± 0.15 mPa·s
  mass density: 1065.48 ± 1 kg/m3
313.15 K, x1 = 0.5129
  speed of sound: 1486 ± 3 m/s
  viscosity: 2.41 ± 0.15 mPa·s
  mass density: 1061.68 ± 1 kg/m3
313.15 K, x1 = 0.5506
  speed of sound: 1489 ± 3 m/s
  viscosity: 2.43 ± 0.15 mPa·s
  mass density: 1060.02 ± 1 kg/m3
313.15 K, x1 = 0.5959
  speed of sound: 1491 ± 3 m/s
  viscosity: 2.44 ± 0.15 mPa·s
  mass density: 1057.67 ± 1 kg/m3
313.15 K, x1 = 0.6852
  speed of sound: 1495 ± 3 m/s
  viscosity: 2.41 ± 0.15 mPa·s
  mass density: 1053.56 ± 1 kg/m3
313.15 K, x1 = 0.7487
  speed of sound: 1497 ± 3 m/s
  viscosity: 2.37 ± 0.15 mPa·s
  mass density: 1050.78 ± 1 kg/m3
313.15 K, x1 = 0.8156
  speed of sound: 1497 ± 3 m/s
  viscosity: 2.29 ± 0.14 mPa·s
  mass density: 1048.06 ± 1 kg/m3
313.15 K, x1 = 0.8651
  speed of sound: 1496 ± 3 m/s
  viscosity: 2.18 ± 0.14 mPa·s
  mass density: 1045.97 ± 1 kg/m3
313.15 K, x1 = 0.9231
  speed of sound: 1495 ± 3 m/s
  viscosity: 2.06 ± 0.13 mPa·s
  mass density: 1044.14 ± 1 kg/m3
313.15 K, x1 = 0.961
  speed of sound: 1493 ± 3 m/s
  viscosity: 1.97 ± 0.13 mPa·s
  mass density: 1042.88 ± 1 kg/m3
313.15 K, x1 = 1
  speed of sound: 1490 ± 3 m/s
  viscosity: 1.83 ± 0.12 mPa·s
  mass density: 1041.7 ± 1 kg/m3
